Reference: PMC5491903, “The Selective Phosphoinoside-3-Kinase p110δ Inhibitor IPI-3063 Potently Suppresses B Cell Survival, Proliferation, and Differentiation” (Frontiers in Immunology, 2017)

Key:
[1] = parameters: method as in PMID 24211136; details: cited from earlier work
p110δ = assay: isoform-specific cell-based assay, pAKT S473 ELISA
Description: (§1) Phospho-Akt1 (S473) sandwich ELISA antibody kit (Cell Signaling Technology, cat. no. 7143) was utilized to analyze pAKT signal in cells as described previously by Winkler et al. ([11]) (for data see Table 2). Briefly, SKOV3 and 786.0 cells were seeded into 96-well cell culture-graded plates at a density of […] per 200 µl culture media per well. Raji and Raw264.7 were seeded at the same density in FBS-free media. After overnight incubation at 5% CO2 and 37°C, the cells were treated with inhibitor for 30 min. Raji cells were stimulated with 10 µg/mL anti-human IgM (Jackson ImmunoResearch) for 30 min and Raw264.7 cells with 25 nM C5a (RnD Systems) for 3 min in the presence of inhibitor. SKOV3 and 786.0 cells were not stimulated. Medium was then aspirated and 50 µL/well of ice-cold lysis buffer was added. pAKT level was determined according to the manufacturer’s instruction.

p110α = assay: isoform-specific cell-based assay, pAKT S473 ELISA; details: read-out: Cellular IC50
Description: as §1

p110β [2] = biological target: T1, p110β (Homo sapiens, UniProt P42338); assay: PI3K enzymatic assay (ADP-Glo) with purified enzymes; parameters: heterodimers consisting of full length p110α, p110β, or p110δ catalytic subunit and the p85α regulatory subunit; purchased Millipore 14-603-K; details: purified enzyme, mean ± spread (n), read-out: Biochemical IC50
T1 sequence (P42338 whole entry): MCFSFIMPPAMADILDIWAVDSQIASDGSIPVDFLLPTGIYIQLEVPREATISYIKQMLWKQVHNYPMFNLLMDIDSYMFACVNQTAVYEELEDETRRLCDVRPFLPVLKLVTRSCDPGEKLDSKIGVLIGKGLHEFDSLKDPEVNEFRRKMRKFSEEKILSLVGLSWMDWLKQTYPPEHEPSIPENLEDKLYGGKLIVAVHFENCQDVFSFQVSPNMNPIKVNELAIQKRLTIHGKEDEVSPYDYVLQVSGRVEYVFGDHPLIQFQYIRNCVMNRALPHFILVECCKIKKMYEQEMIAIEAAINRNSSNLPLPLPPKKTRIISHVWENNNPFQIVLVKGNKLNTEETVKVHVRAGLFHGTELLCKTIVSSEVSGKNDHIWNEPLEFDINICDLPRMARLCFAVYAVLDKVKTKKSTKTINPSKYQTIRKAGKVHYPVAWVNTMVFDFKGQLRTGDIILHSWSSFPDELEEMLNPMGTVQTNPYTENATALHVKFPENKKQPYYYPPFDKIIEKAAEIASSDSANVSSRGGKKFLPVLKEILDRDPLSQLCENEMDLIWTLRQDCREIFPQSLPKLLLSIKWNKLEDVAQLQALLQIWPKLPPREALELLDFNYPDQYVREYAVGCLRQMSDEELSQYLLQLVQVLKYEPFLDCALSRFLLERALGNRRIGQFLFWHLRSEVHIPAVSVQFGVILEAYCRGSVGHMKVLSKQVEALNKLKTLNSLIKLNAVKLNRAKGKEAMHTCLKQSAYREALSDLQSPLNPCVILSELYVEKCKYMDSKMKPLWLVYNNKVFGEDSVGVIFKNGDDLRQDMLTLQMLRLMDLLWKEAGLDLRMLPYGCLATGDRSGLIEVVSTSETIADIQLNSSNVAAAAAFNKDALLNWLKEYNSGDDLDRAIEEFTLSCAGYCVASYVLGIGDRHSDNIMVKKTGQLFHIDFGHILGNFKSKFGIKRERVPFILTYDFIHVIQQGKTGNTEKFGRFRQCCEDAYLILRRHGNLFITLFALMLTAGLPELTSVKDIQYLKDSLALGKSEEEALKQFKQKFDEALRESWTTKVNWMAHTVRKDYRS
T1 sequence (P27986 whole entry partner): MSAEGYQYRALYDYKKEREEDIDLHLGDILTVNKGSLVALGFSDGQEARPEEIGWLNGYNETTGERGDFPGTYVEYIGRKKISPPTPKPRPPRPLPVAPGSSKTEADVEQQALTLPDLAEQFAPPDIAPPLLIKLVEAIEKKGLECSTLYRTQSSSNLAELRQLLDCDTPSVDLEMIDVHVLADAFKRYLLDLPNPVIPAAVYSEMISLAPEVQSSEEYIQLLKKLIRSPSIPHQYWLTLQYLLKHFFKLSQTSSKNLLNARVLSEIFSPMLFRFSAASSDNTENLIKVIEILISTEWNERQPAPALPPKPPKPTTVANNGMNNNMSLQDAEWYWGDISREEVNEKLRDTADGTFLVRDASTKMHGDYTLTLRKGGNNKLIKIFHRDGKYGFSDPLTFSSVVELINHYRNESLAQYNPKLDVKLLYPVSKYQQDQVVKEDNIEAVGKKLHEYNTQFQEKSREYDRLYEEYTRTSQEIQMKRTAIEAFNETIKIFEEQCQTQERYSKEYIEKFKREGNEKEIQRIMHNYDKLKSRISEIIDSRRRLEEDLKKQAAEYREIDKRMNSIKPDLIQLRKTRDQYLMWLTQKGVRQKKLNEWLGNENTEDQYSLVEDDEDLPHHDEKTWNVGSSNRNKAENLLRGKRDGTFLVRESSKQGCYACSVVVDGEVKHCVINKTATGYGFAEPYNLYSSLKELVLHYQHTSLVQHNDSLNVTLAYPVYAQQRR
Description: Human recombinant PI3K-α (cat. no. 14-602-K), -β (cat. no. 14-603-K), -δ (cat. no. 14-604-K), and -γ (cat. no. 14-558-K) were purchased from Millipore. Phosphatidylinositol 4,5 bis phosphate (diC8-PtdIns(4,5)P2) was purchased from Avanti Polar Lipids, Inc. PI3K-α, β, and δ are heterodimers consisting of full length p110α, p110β, or p110δ catalytic subunit and the p85α regulatory subunit. PI3K-γ is a monomer of the p110γ catalytic subunit. Samples of kinase (10 nM—α, β, and δ; 20 nM—γ) were incubated with inhibitor for 30 min at room temperature in reaction buffer (15 mM HEPES pH 7.4, 20 mM NaCl, 1 mM EGTA, 0.02% Tween 20, 10 mM MgCl2, 0.2 mg/mL bovine-γ-globulins) followed by addition of ATP/diC8-PtdIns(4,5)P2 mixture to give final concentrations of 3 mM ATP and 500 µM diC8-PtdIns(4,5)P2. Reactions were incubated at room temperature for 2 h, with PI3K activity assessed via the Promega ADP-Glo Max assay kit (cat. no. V7002) according to the manufacturer’s instruction. Plates were read on Envision plate reader in luminescence mode.

p110β [3] = biological target: T1, p110β; assay: isoform-specific cell-based assay, pAKT S473 ELISA; parameters: endogenous in cells; host or cells: 786.0; details: read-out: Cellular IC50
Description: as §1

CC(C)n1c([C@H](C)Nc2ncnc(N)c2C#N)cc2cccc(-c3ccc(=O)n(C)c3)c2c1=O [IPI-3063]
pharmacokinetics in mice [1]: good | cellular IC50 values for the other class I PI3K isoforms relative to p110δ (p110δ; other class I isoforms vs p110δ, cell-based): at least 1,000 fold | IC50 (p110δ; p110δ-specific cell-based assay, pAKT S473, read-out: Cellular IC50): 0.1 ± 0.01 nM | IC50 (p110α): 1900 nM | IC50 (p110β [2]): 1510 nM | IC50 (p110β [3]): 103 ± 35.7 nM
